Data: patent US20250333573A1, “METHOD FOR TEXTILE AND POLYESTER DECONSTRUCTION AND UPCYCLING TO BIOPLASTIC IN A HALOPHILE” (Battelle Memorial Institute, priority 2024, published 2025)

Tests used:
[1] = test system: Halomonas elongata DSMZ 2581; assay: Growth of Halomonas elongata on lactate and crotonate as the carbon source (OD600); format: cell-based; conditions: 3 g/L crotonic acid alone; MM63 medium, 60 g/L NaCl, pH 8.0
Protocol: FIG. 30B: Growth of Halomonas elongata DSMZ 2581 in MM63 medium containing 3 g/L lactate, 3 g/L crotonate, and mixture of 3 g/L lactate and 3 g/L crotonate as indicated. MM63 medium contained 13.61 g/L KH·PO4, 4.21 g/L KOH, 1.98 (NH4)2SO4, 0.0011 g/L FeSO4—H2O 0.25 g/L MgSO4-7H2O, and 60 g/L NaCl set at pH=8.0. Points represent the average of three replicates and error bars are one standard deviation.
Media was prepared with MM63 minimal salts medium directly and used as a growth substrate for Halomonas elongata strain. MM63 minimal salts medium contains 13.61 g/L KH·PO4, 4.21 g/L KOH, 1.98 (NH4)2SO4, 0.0011 g/L FeSO4—H2O 0.25 g/L MgSO4-7H2O, 60 g/L NaCl. […] Assuming linearity in biomass to substrate loading, and assuming the major carbon source was crotonate and/or lactate, the increased optical density over time would indicate a high conversion of the substrates in the Halomonas strain.
Cell density was measured using a spectrophotometric assay detecting absorbance of each well/cuvette at 600 nm. The measurements were performed using a Thermo Scientific Genesys 150 spectrophotometer. A non-inoculated control was used to subtract background absorbance.

[2] = test system: WT Halomonas elongata; assay: Growth of WT Halomonas elongata on subcritical water products and ethylene glycol (OD600); format: cell-based; conditions: 5 g/L ethylene glycol; minimal salts medium, 60 g/L NaCl
Protocol: This was prepared with minimal salts medium directly and used as a growth substrate for the WT Halomonas elongata strain.
The SCW product contained 4.1 g/L EG, and the final medium preparation contained ˜1.6 g/L EG.

SMILES | final optical density [1] | final OD600 [2]
C/C=C/C(=O)O [crotonate, crotonic acid] | 6.0 | 
OCCO [ethylene glycol] |  | 3.16
